Tests used:
Experiment in all cases: Cell proliferation experiment (CellTiter Glo, 72 hours)
Format in all cases: cell-based
[1] = test system: human epidermal cancer cells A431 carrying EGFR WT; conditions: Homo sapiens, A-431
Method: (§1) Experiment 2 Cell Proliferation Experiment
Adherent cells: human epidermal cancer cells A431 carrying EGFR WT.
(§2) RPMI 1640 with 10% FBS and 1% Penicillin-Streptomycin, or DMEM with 10% FBS and 1% Penicillin-Streptomycin.
(§3) a) Diluting compounds being tested (20 mM stock solutions), as an initial concentration, to 10 mM with 100% DMSO, followed by diluting compounds serially in a 3-fold gradient such that each compound is diluted into 12 concentrations (Cat #P-05525, Labcyte).
(§4) b) Diluting the above compound solutions for 100-fold with culture medium to prepare 10-fold working solution.
(§5) b) Seeding cells into 96-well cell culture plate at a density of 2000 or 3000 cells/well, with 135 μL/well.
(§6) a) Adding the compound prepared in step 2 to the cell plate at 15 μL per well, resulting in a final maximum concentration of 10000 nM or 1111 nM. The compounds is diluted serially in a 3-fold gradient such that each compound is diluted into 9 concentrations, wherein the final concentration of DMSO is 0.1%. Blank control wells are added with medium (0.1% DMSO).
(§7) b) Re-incubating the cells in an incubator for 72 hours. 5. Detection
(§8) a) Adding 50 μL of CTG reagent (CellTiter Glo kit, promega, Cat #G7573) to the 96-well cell culture plate.
(§9) b) Shaking the plate for 2 minutes and reacting at room temperature for 10 minutes.
(§10) c) Reading the luminescence signal value (Lum) using PerkinElmer reader.
(§11) The cell survival inhibition rate of each well was calculated. The data was analyzed by GraphPad Prism 6.0 software. The dose-response curve was obtained by fitting the data with a nonlinear regression equation. The IC50 of each compound was calculated as follows:
(§12) Cell survival inhibition rate (%)=(1−(Lumcompound tested−Lummedium control)/(Lumcell control−Lummedium control))×100%
(§13) Y=Min+(Max−Min)/(1+10^((Log IC50−X)*Slope));
(§14) X: logarithm of compound concentration. Y: cell survival inhibition rate.

[2] = target: Ba/F3 EGFR WT (Homo sapiens, UniProt P00533); conditions: read-out: BaF3 EGFR WT IC50
Method: as §1
(§15) Suspension cells: Ba/F3 cells with stable overexpression of Δ19del/T790M/C797S mutant gene, named Ba/F3-Δ19del/T790M/C797S; Ba/F3 cells with overexpression of EGFR WT, named Ba/F3 EGFR WT.
as §2, §3, §4, §5, §6, §7, §8, §9, §10, §11, §12, §13, §14

[3] = target: Ba/F3-Δ19del/T790M/C797S (Homo sapiens, UniProt P00533, T790M/C797S, cells depend on it, form not given); conditions: read-out: Ba/F3/EGFR Δ19del/T790M/C797S IC50
Method: as §1, §15, §2, §3, §4, §5, §6, §7, §8, §9, §10, §11, §12, §13, §14

Ba/F3-Δ19del/T790M/C797S, sequence (P00533 with tags, fused parts or gaps DEL746-750/T790M/C797S, form open): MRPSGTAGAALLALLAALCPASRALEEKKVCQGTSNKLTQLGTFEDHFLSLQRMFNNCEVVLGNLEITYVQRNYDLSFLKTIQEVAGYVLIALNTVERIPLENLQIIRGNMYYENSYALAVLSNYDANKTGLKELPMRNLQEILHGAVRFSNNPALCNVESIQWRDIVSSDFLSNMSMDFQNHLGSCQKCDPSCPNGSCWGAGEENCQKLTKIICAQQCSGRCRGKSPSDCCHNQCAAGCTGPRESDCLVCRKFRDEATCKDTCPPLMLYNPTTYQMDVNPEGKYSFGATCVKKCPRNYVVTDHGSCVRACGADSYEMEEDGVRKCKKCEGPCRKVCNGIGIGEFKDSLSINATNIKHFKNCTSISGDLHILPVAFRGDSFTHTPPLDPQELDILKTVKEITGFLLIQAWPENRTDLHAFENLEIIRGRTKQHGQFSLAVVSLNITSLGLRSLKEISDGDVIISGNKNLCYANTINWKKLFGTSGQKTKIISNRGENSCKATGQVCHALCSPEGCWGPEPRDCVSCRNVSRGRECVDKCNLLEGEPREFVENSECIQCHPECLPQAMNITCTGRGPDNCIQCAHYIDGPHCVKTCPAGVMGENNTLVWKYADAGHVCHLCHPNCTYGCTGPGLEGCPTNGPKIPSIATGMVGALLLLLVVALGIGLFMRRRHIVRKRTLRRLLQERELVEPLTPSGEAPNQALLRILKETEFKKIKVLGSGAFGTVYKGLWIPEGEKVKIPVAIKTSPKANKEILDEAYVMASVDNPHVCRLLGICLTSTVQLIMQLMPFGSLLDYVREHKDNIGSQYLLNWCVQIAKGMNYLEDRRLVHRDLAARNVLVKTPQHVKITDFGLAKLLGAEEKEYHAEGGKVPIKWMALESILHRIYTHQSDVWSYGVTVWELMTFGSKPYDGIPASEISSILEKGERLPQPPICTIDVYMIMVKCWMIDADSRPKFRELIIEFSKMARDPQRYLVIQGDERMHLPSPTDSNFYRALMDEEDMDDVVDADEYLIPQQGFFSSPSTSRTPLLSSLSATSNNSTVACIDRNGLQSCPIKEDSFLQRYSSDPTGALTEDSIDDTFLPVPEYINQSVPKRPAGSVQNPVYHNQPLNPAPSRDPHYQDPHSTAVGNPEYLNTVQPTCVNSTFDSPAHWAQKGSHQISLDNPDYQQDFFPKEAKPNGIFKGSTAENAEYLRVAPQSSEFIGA
Ba/F3 EGFR WT, sequence (P00533 whole entry, change not shown): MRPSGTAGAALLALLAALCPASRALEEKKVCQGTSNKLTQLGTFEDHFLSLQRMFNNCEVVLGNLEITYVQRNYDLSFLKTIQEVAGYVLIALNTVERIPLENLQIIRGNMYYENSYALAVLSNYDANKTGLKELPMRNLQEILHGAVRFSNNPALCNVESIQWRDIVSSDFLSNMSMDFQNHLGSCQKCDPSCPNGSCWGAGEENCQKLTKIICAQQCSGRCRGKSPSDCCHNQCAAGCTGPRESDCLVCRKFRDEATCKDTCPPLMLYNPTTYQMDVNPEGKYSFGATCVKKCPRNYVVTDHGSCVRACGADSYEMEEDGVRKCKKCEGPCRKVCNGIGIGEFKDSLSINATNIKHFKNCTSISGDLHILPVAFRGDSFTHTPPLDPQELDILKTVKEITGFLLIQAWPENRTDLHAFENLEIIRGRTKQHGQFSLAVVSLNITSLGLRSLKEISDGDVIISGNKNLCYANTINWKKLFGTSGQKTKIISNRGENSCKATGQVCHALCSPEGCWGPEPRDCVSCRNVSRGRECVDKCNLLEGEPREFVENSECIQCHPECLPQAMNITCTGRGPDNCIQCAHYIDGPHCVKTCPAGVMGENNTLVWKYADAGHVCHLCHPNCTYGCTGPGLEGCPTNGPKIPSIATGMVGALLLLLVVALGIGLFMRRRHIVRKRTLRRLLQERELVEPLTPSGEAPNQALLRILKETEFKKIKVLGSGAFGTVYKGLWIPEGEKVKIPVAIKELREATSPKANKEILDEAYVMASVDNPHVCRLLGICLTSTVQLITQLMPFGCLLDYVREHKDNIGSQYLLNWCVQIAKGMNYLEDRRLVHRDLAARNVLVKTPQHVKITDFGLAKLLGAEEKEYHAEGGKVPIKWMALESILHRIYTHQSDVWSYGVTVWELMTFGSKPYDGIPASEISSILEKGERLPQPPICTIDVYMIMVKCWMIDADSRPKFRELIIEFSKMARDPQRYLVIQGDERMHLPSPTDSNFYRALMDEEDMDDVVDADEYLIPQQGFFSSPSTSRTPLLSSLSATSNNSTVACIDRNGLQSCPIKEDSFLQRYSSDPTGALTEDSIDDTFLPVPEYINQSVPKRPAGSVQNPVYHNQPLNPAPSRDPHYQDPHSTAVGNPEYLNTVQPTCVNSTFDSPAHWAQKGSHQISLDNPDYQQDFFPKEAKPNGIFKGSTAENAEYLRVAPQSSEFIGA

In the case of COc1cc(Nc2ncc(Br)c(Nc3ccc4nc(C5CC5)ccc4c3P(C)(C)=O)n2)c(C)cc1N1CCC(OC)CC1 [Compound J-033, (6-((5-Bromo-2-((5-methoxy-4-(4-methoxypiperidin-1-yl)-2-methylphenyl)amino)pyrimidin-4-yl)amino)-2-cyclopropylquinolin-5-yl)dimethylphosphine oxide], the IC50 [1] is reported as over 10000 nM, the GI50 [2] is reported as 611 nM and the GI50 [3] is reported as 12.9 nM.
COc1cc(N2CCN(c3cc(OC)c(Nc4ncc(Br)c(Nc5ccc6nc(C7CC7)ccc6c5P(C)(C)=O)n4)cc3-c3cnn(C)c3)CC2)ccn1 [Compound J-043] showed an IC50 [1] of 896 nM, a GI50 [2] of 67.6 nM and a GI50 [3] of 10.9 nM.
With COc1ncc(N2CCN(c3cc(OC)c(Nc4ncc(Br)c(Nc5ccc6nc(C7CC7)ccc6c5P(C)(C)=O)n4)cc3-c3cnn(C)c3)CC2)cn1 [Compound J-044, (6-((5-Bromo-2-((2-methoxy-4-(4-(2-methoxypyrimidin-5-yl)piperazin-1-yl)-5-(1-methyl-1H-pyrazol-4-yl)phenyl)amino)pyrimidin-4-yl)amino)-2-cyclopropylquinolin-5-yl)dimethylphosphine oxide] the IC50 [1] was 432 nM, the GI50 [2] was 25.2 nM and the GI50 [3] was 1 nM.
In the case of COc1cc(N2CCN(c3cnc(N(C)C)cn3)CC2)c(-c2cnn(C)c2)cc1Nc1ncc(Br)c(Nc2ccc3nc(C4CC4)ccc3c2P(C)(C)=O)n1 [Compound J-045, (6-((5-Bromo-2-((4-(4-(5-(dimethylamino)pyrazin-2-yl)piperazin-1-yl)-2-methoxy-5-(1-methyl-1H-pyrazol-4-yl)phenyl)amino)pyrimidin-4-yl)amino)-2-cyclopropylquinolin-5-yl)dimethylphosphine oxide], the IC50 [1] is reported as 710 nM, the GI50 [2] is reported as 130 nM and the GI50 [3] is reported as 13.5 nM.
COc1cc(N2CCC(N3CCN(C)CC3)CC2)c(-c2cnn(C)n2)cc1Nc1ncc(Br)c(Nc2ccc3nc(C4CC4)ccc3c2P(C)(C)=O)n1 [Compound J-046, (6-((5-Bromo-2-((2-methoxy-5-(2-methyl-2H-1,2,3-triazol-4-yl)-4-(4-(4-methylpiperazin-1-yl)piperidin-1-yl)phenyl)amino)pyrimidin-4-yl)amino)-2-cyclopropylquinolin-5-yl)dimethylphosphine oxide] showed an IC50 [1] of 475 nM, a GI50 [2] of 117 nM and a GI50 [3] of 1.2 nM.
Work on COc1cc(N2CCN(c3ccncc3)CC2)c(-c2cnn(C)n2)cc1Nc1ncc(Br)c(Nc2ccc3nc(C4CC4)ccc3c2P(C)(C)=O)n1 [Compound J-047, (6-((5-Bromo-2-((2-methoxy-5-(2-methyl-2H-1,2,3-triazol-4-yl)-4-(4-(pyridin-4-yl)piperazin-1-yl)phenyl)amino)pyrimidin-4-yl)amino)-2-cyclopropylquinolin-5-yl)dimethylphosphine oxide] yielded an IC50 [1] of 176 nM, a GI50 [2] of 21 nM and a GI50 [3] of 0.5 nM.
In the case of COc1cc(N2CCN(c3nccs3)CC2)c(-c2cnn(C)c2)cc1Nc1ncc(Br)c(Nc2ccc3nc(C4CC4)ccc3c2P(C)(C)=O)n1 [Compound J-048, (6-((5-Bromo-2-((2-methoxy-5-(1-methyl-1H-pyrazol-4-yl)-4-(4-(thiazol-2-yl)piperazin-1-yl)phenyl)amino)pyrimidin-4-yl)amino)-2-cyclopropylquinolin-5-yl)dimethylphosphine oxide], the IC50 [1] is reported as 1100 nM, the GI50 [2] is reported as 52 nM and the GI50 [3] is reported as 7.6 nM.
COc1cncc(N2CCN(c3cc(OC)c(Nc4ncc(Br)c(Nc5ccc6nc(C7CC7)ccc6c5P(C)(C)=O)n4)cc3-c3cnn(C)c3)CC2)n1 [Compound J-049, (6-((5-Bromo-2-((2-methoxy-4-(4-(6-methoxypyrazin-2-yl)piperazin-1-yl)-5-(1-methyl-1H-pyrazol-4-yl)phenyl)amino)pyrimidin-4-yl)amino)-2-cyclopropylquinolin-5-yl)dimethylphosphine oxide] showed an IC50 [1] of 2300 nM, a GI50 [2] of 109 nM and a GI50 [3] of 8.5 nM.
With COc1cc(N2CCN(c3cccc(=O)n3C)CC2)c(-c2cnn(C)c2)cc1Nc1ncc(Br)c(Nc2ccc3nc(C4CC4)ccc3c2P(C)(C)=O)n1 [Compound J-050, 6-(4-(4-((5-Bromo-4-((2-cyclopropyl-5-(dimethylphosphoryl)quinolin-6-yl)amino)pyrimidin-2-yl)amino)-5-methoxy-2-(1-methyl-1H-pyrazol-4-yl)phenyl)piperazin-1-yl)-1-methylpyridin-2(1H)-one] the IC50 [1] was 861 nM, the GI50 [2] was 42.2 nM and the GI50 [3] was 1.8 nM.
COc1cc(NCC2CCN(C)CC2)c(-c2cnn(C)c2)cc1Nc1ncc(Br)c(Nc2ccc3nc(C4CC4)ccc3c2P(C)(C)=O)n1 [Compound J-052] showed an IC50 [1] of 279 nM, a GI50 [2] of 123 nM and a GI50 [3] of 2.6 nM.
In the case of COc1cc(NCC2CCOCC2)c(-c2cnn(C)c2)cc1Nc1ncc(Br)c(Nc2ccc3nc(C4CC4)ccc3c2P(C)(C)=O)n1 [Compound J-053, (6-((5-Bromo-2-((2-methoxy-5-(1-methyl-1H-pyrazol-4-yl)-4-(((tetrahydro-2H-pyran-4-yl)methyl)amino)phenyl)amino)pyrimidin-4-yl)amino)-2-cyclopropylquinolin-5-yl)dimethylphosphine oxide], the IC50 [1] is reported as 753 nM, the GI50 [2] is reported as 54 nM and the GI50 [3] is reported as 3.9 nM.
With COc1cc(N2CCN(C)CC2)c(-c2cnn(C)c2)cc1Nc1ncc(Br)c(Nc2ccc3nc(C4CC4)ccc3c2P(C)(C)=O)n1 [Compound J-054, (6-((5-Bromo-2-((2-methoxy-5-(1-methyl-1H-pyrazol-4-yl)-4-(4-methylpiperazin-1-yl)phenyl)amino)pyrimidin-4-yl)amino)-2-cyclopropylquinolin-5-yl)dimethylphosphine oxide] the IC50 [1] was 143 nM, the GI50 [2] was 15.8 nM and the GI50 [3] was 0.8 nM.
COc1cc(N2CCN(C3CCCC3)CC2)c(-c2cnn(C)c2)cc1Nc1ncc(Br)c(Nc2ccc3nc(C4CC4)ccc3c2P(C)(C)=O)n1 [Compound J-055, (6-((5-Bromo-2-((4-(4-cyclopentylpiperazin-1-yl)-2-methoxy-5-(1-methyl-1H-pyrazol-4-yl)phenyl)amino)pyrimidin-4-yl)amino)-2-cyclopropylquinolin-5-yl)dimethylphosphine oxide] gave a GI50 [2] of 79 nM and a GI50 [3] of 12.4 nM.
Work on COc1cc(N2CCN(c3cccnc3)CC2)c(-c2cnn(C)c2)cc1Nc1ncc(Br)c(Nc2ccc3nc(C4CC4)ccc3c2P(C)(C)=O)n1 [Compound J-056, (6-((5-Bromo-2-((2-methoxy-5-(1-methyl-1H-pyrazol-4-yl)-4-(4-(pyridin-3-yl)piperazin-1-yl)phenyl)amino)pyrimidin-4-yl)amino)-2-cyclopropylquinolin-5-yl)dimethylphosphine oxide] yielded an IC50 [1] of 1100 nM, a GI50 [2] of 38 nM and a GI50 [3] of 0.8 nM.
COc1cc(N2CCN(c3ccncc3)CC2)c(-c2cnn(C)c2)cc1Nc1ncc(Br)c(Nc2ccc3nc(C4CC4)ccc3c2P(C)(C)=O)n1 [Compound J-057, (6-((5-Bromo-2-((2-methoxy-5-(1-methyl-1H-pyrazol-4-yl)-4-(4-(pyridin-4-yl)piperazin-1-yl)phenyl)amino)pyrimidin-4-yl)amino)-2-cyclopropylquinolin-5-yl)dimethylphosphine oxide] showed an IC50 [1] of 328 nM, a GI50 [2] of 54 nM and a GI50 [3] of 3 nM.
